Results taken from ChEMBL document CHEMBL4422615, “Novel non-xanthine antagonist of the A2B adenosine receptor: From HTS hit to lead structure” (Eur J Med Chem, 2019).
≈ marks a conversion by molar mass, not a printed value. Calls of active or inactive are those of the source. No cut-off for these calls is given here.

Columns and labels:
[1] = Partition coefficient, log P of the compound; assay type: physicochemical; details: octanol/water
[2] = Aqueous solubility of the compound in phosphate buffer at pH 6.5 after 24 hrs by LC/MS/MS analysis; assay type: physicochemical
[3] = Fraction unbound in dog plasma by equilibrium dialysis method; assay type: ADME, cell-free, Canis lupus familiaris
[4] = Fraction unbound in mouse plasma by equilibrium dialysis method; assay type: ADME, cell-free
Cytochrome P450 2C8 = biological target: T1, Cytochrome P450 2C8 (Homo sapiens, UniProt P10632); assay: Inhibition of CYP2C8 in human liver microsomes using amodiaquine as substrate after 15 mins in presence of NADPH by LC-MS/MS analysis; assay type: ADME
T1 sequence (P10632 whole entry): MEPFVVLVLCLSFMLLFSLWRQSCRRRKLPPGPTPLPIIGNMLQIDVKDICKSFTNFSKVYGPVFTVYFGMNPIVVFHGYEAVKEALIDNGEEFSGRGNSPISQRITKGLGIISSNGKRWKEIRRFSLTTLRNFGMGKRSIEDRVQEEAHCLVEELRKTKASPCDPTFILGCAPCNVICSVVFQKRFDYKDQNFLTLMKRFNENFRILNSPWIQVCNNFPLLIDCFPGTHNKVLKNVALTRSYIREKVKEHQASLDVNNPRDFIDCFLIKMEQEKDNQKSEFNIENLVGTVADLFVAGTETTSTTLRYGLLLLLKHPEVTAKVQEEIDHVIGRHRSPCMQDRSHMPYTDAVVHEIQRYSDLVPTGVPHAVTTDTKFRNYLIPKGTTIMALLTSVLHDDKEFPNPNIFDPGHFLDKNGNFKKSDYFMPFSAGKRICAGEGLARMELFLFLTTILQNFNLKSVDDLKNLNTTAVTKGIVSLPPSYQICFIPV

Cytochrome P450 3A4 [5] = biological target: T2, Cytochrome P450 3A4 (Homo sapiens, UniProt P08684); assay: Inhibition of CYP3A4 in human liver microsomes using midazolam as substrate preincubated for 30 mins followed by substrate addition measured after 10 mins in presence of NADPH by LC-MS/MS analysis; assay type: ADME
Cytochrome P450 3A4 [6] = biological target: T2, Cytochrome P450 3A4; assay: Time dependent inhibition of human liver microsomes CYP3A4 using midazolam as substrate in presence of NADPH by LC-MS/MS analysis; assay type: ADME
[7] = Blood clearance in human by measuring intrinsic clearance in human liver microsomes by MS/MS analysis; assay type: ADME
[8] = Blood clearance in mouse by measuring intrinsic clearance in mouse liver microsomes by MS/MS analysis; assay type: ADME
[9] = Blood clearance in rat by measuring Intrinsic clearance in rat hepatocytes by MS/MS analysis; assay type: ADME, cell-based
[10] = Apparent permeability from apical side to basolateral side in human Caco2 cells; assay type: ADME, cell-based; details: Caco-2
Mus musculus [11] = assay: Antifibrotic activity in FITC-induced C57BL/6J mouse pulmonary fibrosis model assessed as reduction in lung weight at 100 to 500 mg/kg, bid administered via gavage pretreated for 45 mins before FITC addition until 72 hrs after FITC application; assay type: functional, organism-based
Mus musculus [12] = assay: Antifibrotic activity in silica-induced C57BL/6J mouse pulmonary fibrosis model assessed as reduction in lung weight at 100 to 500 mg/kg, bid administered via gavage treated from day 1 until day 7 after silica application; assay type: functional, organism-based
[13] = Clearance in mouse plasma at 0.3 mg/kg, iv administered as bolus dose by HPLC-MS/MS analysis; assay type: ADME, organism-based
[14] = Volume of distribution at steady state in rat at 0.3 mg/kg, iv administered as infusion for 15 mins by HPLC-MS/MS analysis; assay type: ADME, organism-based; details: in vivo, read-out: Vdss
[15] = MRT in rat at 0.3 mg/kg, iv administered as infusion for 15 mins by HPLC-MS/MS analysis; assay type: ADME, organism-based; details: in vivo
[16] = Half life in rat at 0.3 mg/kg, iv administered as infusion for 15 mins by HPLC-MS/MS analysis; assay type: ADME, organism-based; details: in vivo
[17] = Clearance in dog plasma at 0.3 mg/kg, iv administered as bolus dose by HPLC-MS/MS analysis; assay type: ADME, organism-based, Canis lupus familiaris
[18] = Clearance in dog blood at 0.3 mg/kg, iv administered as bolus dose by HPLC-MS/MS analysis; assay type: ADME, organism-based, Canis lupus familiaris
[19] = Volume of distribution at steady state in dog at 0.3 mg/kg, iv administered as infusion for 15 mins by HPLC-MS/MS analysis; assay type: ADME, organism-based, Canis lupus familiaris; details: in vivo, read-out: Vdss
[20] = Half life in dog at 0.3 mg/kg, iv administered as infusion for 15 mins by HPLC-MS/MS analysis; assay type: ADME, organism-based, Canis lupus familiaris; details: in vivo
[21] = MRT in mouse at 1 mg/kg, iv administered as bolus dose by HPLC-MS/MS analysis; assay type: ADME, organism-based; details: in vivo
[22] = Half life in mouse at 1 mg/kg, iv administered as bolus dose by HPLC-MS/MS analysis; assay type: ADME, organism-based; details: in vivo
[23] = Half life in dog at 1 mg/kg, po for 15 mins by HPLC-MS/MS analysis; assay type: ADME, organism-based, Canis lupus familiaris; details: in vivo
Adenosine receptor A3 [24] = biological target: T3, Adenosine receptor A3 (Homo sapiens, UniProt P0DMS8); assay: Displacement of [125I]AB-MECA from human A3 adenosine receptor expressed in HEK293 cell membranes after 120 mins by radioligand displacement assay
T3 sequence (P0DMS8 whole entry): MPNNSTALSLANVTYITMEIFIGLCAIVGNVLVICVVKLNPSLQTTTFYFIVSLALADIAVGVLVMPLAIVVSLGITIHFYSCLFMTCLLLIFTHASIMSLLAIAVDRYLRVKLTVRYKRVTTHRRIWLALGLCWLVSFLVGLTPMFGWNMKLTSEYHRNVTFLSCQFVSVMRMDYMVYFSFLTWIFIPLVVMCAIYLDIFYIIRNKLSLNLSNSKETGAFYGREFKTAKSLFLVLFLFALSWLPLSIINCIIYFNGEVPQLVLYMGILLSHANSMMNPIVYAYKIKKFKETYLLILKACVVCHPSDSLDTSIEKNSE

Adenosine receptor A1 = biological target: T4, Adenosine receptor A1 (Homo sapiens, UniProt P30542); assay: Antagonist activity at recombinant human A1 adenosine receptor expressed in CHO cells after 3 to 4 hrs by luciferase reporter gene assay; assay type: cell-based
T4 sequence (P30542 whole entry): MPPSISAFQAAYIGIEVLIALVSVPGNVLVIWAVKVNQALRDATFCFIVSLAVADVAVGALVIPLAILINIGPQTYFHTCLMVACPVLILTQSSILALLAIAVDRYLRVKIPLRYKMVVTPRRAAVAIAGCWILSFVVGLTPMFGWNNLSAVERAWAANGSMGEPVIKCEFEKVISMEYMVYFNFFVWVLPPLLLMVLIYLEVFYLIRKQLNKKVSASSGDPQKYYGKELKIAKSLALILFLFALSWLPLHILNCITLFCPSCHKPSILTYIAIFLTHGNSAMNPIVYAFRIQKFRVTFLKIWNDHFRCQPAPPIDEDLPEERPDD

Adenosine receptor A3 [25] = biological target: T3, Adenosine receptor A3; assay: Antagonist activity at recombinant human A3 adenosine receptor expressed in CHO cells after 3 to 4 hrs by luciferase reporter gene assay; assay type: cell-based
Adenosine receptor A2a = Adenosine receptor A2a (Rattus norvegicus, UniProt P30543); assay: Antagonist activity at recombinant rat A2A adenosine receptor expressed in CHO cells after 3 to 4 hrs by luciferase reporter gene assay; assay type: cell-based
[26] = Toxicity in FITC-induced C57BL/6J mouse pulmonary fibrosis model assessed as change in body weight administered as bid dose via gavage pretreated for 45 mins before FITC addition until 72 hrs after FITC application; details: in vivo, po
[27] = Plasma clearance in mouse; assay type: ADME, organism-based

T2 sequence (P08684 whole entry): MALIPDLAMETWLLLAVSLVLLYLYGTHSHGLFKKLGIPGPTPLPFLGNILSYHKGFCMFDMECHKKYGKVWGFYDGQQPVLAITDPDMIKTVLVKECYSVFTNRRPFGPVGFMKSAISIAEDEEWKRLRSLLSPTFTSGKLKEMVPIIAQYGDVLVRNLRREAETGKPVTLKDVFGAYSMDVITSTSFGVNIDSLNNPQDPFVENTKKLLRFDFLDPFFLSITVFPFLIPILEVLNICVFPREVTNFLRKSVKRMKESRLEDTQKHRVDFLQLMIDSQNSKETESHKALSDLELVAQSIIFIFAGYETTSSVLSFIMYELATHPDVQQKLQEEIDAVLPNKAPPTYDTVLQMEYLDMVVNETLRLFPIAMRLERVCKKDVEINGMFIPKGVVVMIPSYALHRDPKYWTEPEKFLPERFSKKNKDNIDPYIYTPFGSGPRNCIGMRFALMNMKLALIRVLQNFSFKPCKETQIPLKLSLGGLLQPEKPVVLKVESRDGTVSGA
Chain of Adenosine receptor A2a (P30543 whole entry): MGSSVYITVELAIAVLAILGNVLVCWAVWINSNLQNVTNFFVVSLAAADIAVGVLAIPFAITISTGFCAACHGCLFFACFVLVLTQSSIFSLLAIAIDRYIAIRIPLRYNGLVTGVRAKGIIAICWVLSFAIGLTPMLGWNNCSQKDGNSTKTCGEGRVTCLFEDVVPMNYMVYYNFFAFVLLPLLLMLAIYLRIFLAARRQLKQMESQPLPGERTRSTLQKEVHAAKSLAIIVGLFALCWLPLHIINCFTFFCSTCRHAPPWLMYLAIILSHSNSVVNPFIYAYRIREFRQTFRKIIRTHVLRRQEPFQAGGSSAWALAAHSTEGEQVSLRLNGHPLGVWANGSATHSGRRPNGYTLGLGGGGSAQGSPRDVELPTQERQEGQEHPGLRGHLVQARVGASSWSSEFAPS

logP [1]: 1.99
solubility at 24 h [2]: 410 µg/mL (≈ 946 µM)
fraction unbound [3]: 0.54
fraction unbound [4]: 0.3
IC50 (Cytochrome P450 2C8): > 20 µM
IC50 (Cytochrome P450 3A4 [5]): > 20 µM
TDI (Cytochrome P450 3A4 [6]): Not Active
CLhep predicted [7]: 3.67 mL/min/kg
CLhep predicted [8]: < 8.33 mL/min/kg
CLhep predicted [9]: 23.3 mL/min/kg
Papp A→B [10]: 48 ×10⁻⁶ cm/s
clearance [13]: 10.2 mL/min/kg
Vd [14]: 1.5 L/kg
MRT [15]: 1.3 h
half-life [16]: 1.4 h
clearance [17]: 6.67 mL/min/kg
clearance [18]: 7.33 mL/min/kg
Vd [19]: 2 L/kg
half-life [20]: 6.6 h
MRT [21]: 1.2 h
half-life [22]: 2.1 h
half-life [23]: 5.1 h
Ki (Adenosine receptor A3 [24]): > 10 µM
IC50 (Adenosine receptor A1): 1.3 µM
IC50 (Adenosine receptor A3 [25]): > 6.7 µM
IC50 (Adenosine receptor A2a): 0.75 µM
clearance [27]: 10.2 mL/min/kg
Compound: CCn1c(=O)c2c(C)c(C(=O)N3CCC(O)CC3)sc2n(CCC(F)(F)F)c1=O
Activity (Mus musculus [11]): Active
Activity (Mus musculus [12]): Active
Activity [26]: Non-Toxic
